{"source": "patent US20080260774A1", "about": "“Alpha-galactosyl ceramide analogs and their use as immunotherapies” (priority 2007, published 2008)", "key": {"[1]": {"tested_on": "C57BL/6 mice", "test": "Expansion of NKT subsets in spleens of C57BL/6 mice", "type": "in vivo", "conditions": "C57BL/6 Wt, 72 h post IV injection, 0.1 μg per mouse"}, "[2]": {"tested_on": "B16 melanoma", "test": "Tumor infiltrating lymphocytes in B16 melanoma by flow cytometry", "type": "in vivo", "conditions": "day 21; 0.1 μg/mouse, once/week; normalized to DMSO"}, "[3]": {"tested_on": "Sphingomonas capsulata", "test": "Antibacterial efficacy in Sphingomonas capsulata infected mice", "type": "in vivo, mouse", "conditions": "50 μg/kg", "from_the_text": "Sphingomonas capsulata is a common environmental bacterial strain that is found in many places such as the air and water. It can be easily identified on nutrient agar plates because of its yellow colony color. […] Since the antibacterial activities of glycolipid antigens are mediated through the activation of NKT cells by glycolipid bound-CD1-d molecules, evaluation of the antibacterial efficacies using the disease model of Sphingomonas capsulata infection will focus on the impact of the NKT mediated pathway that is activated by glycolipid bindings. Six to eight week old female C57BL/6 mice were injected IP with Sphingomonas capsulate cells. […] Twenty-four hours after bacterial infection, livers were removed from mice and homogenized. Colony formation units (CFU) of Sphingomonas capsulate in liver homogenates were determined by plating diluted samples on nutrient plates. Colonies were counted after incubation for 48 hours at 37° C. […] To confirm the antibacterial efficacies of these α-GalCer analogs, another study was conducted to repeat the study by treating infected mice with 50 μg/kg in the same disease model. […] Six to eight week old female C57BL/6 mice were injected IP with 5×10^8 Sphingomonas capsulate cells. Mice were grouped into treatment and control groups with 4-6 mice per group. Four hours after the infection, mice in the treatment group were injected IP with testing α-GalCer analogs at 50 or 100 μg/kg, and the control group mice were injected with same volumes of PBS. Twenty-four hours after bacterial infection, mice from all groups were sacrificed. Livers were removed from mice and homogenized in 0.9% NaCl, 0.02% Tween 80 using tissue homogenizers. Colony formation units (CFU) of Sphingomonas capsulate in liver homogenates were determined by plating diluted samples on nutrient plates. Colonies were counted after incubation for 48 hours at 37° C."}, "[4]": {"tested_on": "TC1 tumor", "test": "Tumor infiltrating lymphocytes in lung cancer (TC1) by flow cytometry", "type": "in vivo", "conditions": "day 21; 0.1 μg/mouse, once/week; normalized to DMSO"}, "[5]": {"tested_on": "human monocyte-derived DCs", "test": "Maturation of human monocyte-derived dendritic cells"}, "[6]": {"tested_on": "syngeneic breast cancer (4T1)", "test": "Breast cancer model in mice (4T1, SubQ inoculation)", "type": "in vivo, mouse", "conditions": "SubQ delivery"}, "[7]": {"tested_on": "FLU-A virus serotype H1N1 (WSN)", "test": "Cytopathetic effect / virus titer in MDCK cells infected with H1N1 (WSN)", "type": "cell-based", "procedure": "FIG. 60(A-B) show the cytopathetic effect (CPE) of Madin-Darby canine kidney (MDCK) cells in vitro. MDCK cells were pretreated with vehicle, α-GalCer or one of the α-GalCer analogs C13, C14 or C16 at 10 μg/ml for four hours, followed by infection with FLU-A virus serotype H1N1 (WSN) at 10TCID50.\nBALB/c mice were treated via intranasal route with control, α-GalCer (C1) or the α-GalCer analogs C13, C14 or C16 at one hour prior to virus challenge with H1N1 (WSN). […] In general, certain α-GalCer analogs may exert direct anti-viral effects, or act indirectly via immune stimulation. […] MDCK cells were pretreated with vehicle, α-GalCer or one of the α-GalCer analogs C13, C14 or C16 at 10 μg/ml for four hours, followed by infection with FLU-A virus serotype H1N1 (WSN) at 10TCID50."}, "[8]": {"tested_on": "syngeneic lung cancer (TC1) cells", "test": "Lung cancer model in mice (TC1, IV inoculation)", "type": "in vivo, mouse", "conditions": "IV administration"}, "[9]": {"tested_on": "H5 of avian influenza viruses (pHA)", "type": "in vivo, mouse", "conditions": "mouse, in vivo"}, "[10]": {"tested_on": "naïve CD161^+/CD3^+ NKTs", "test": "Human NKT TCR activation (phosphoproteins), glycolipid presented by HeLa, HeLa-CD1d or iDCs, 10 μg/ml", "type": "cell-based", "conditions": "for intracellular phospho-CD3ε / phospho-CREB / phospho-ERK1/2: 10 μg/ml"}, "[11]": {"tested_on": "FLU-A virus serotype H1N1 (WSN)", "test": "Influenza virus H1N1 (WSN) infection in BALB/c mice", "conditions": "mouse, in vivo"}, "[12]": {"tested_on": "human naïve NKTs (CD161^+CD3^+)", "test": "Cytokine/chemokine secretion by human naïve CD161+CD3+ NKTs co-cultured with autologous immature CD14+ DCs", "type": "cell-based"}, "[13]": {"tested_on": "BALB/c mice", "test": "Expansion/activation of mouse splenocyte subpopulations 72 h after injection", "type": "in vivo"}, "[14]": {"tested_on": "BALB/c mice", "test": "Mouse serum cytokines/chemokines after IV, SubQ or IM injection", "type": "in vivo"}}, "data": [{"smiles": "CCCCCCCCCCCCCC[C@@H](O)[C@@H](O)[C@H](CO[C@H]1O[C@H](CO)[C@H](O)[C@H](O)[C@H]1O)NC(=O)CCCCCCCCCCc1ccc(-c2ccc(F)cc2)cc1", "note": "[C30]", "values": [{"measurement": "total number of NKTs and its two subtypes NKT1 and NKT2", "setting": "[1]", "result": "increase of total number of NKTs"}, {"measurement": "number of tumor infiltrating lymphocytes (CD3+ T, CD8 T, NKs, NKTs)", "setting": "[2]", "result": "significantly significant increase in the number of TH1-biased tumor infiltrating lymphocytes in melanoma, as compared with both control and α-GalCer"}, {"measurement": "CFU numbers (in lungs)", "setting": "[3]", "result": "significant in comparison to the untreated group"}, {"measurement": "number of tumor infiltrating lymphocytes (CD3+ T, CD8 T, NKs, NKTs)", "setting": "[4]", "result": "significantly significant increase in the number of TH1-biased tumor infiltrating lymphocytes in lung cancer, as compared with both control and α-GalCer"}]}, {"smiles": "CCCCCCCCCCCCCCCCCCCCCCCCCC(=O)N[C@@H](CO[C@H]1O[C@H](CO)[C@H](O)[C@H](O)[C@H]1O)[C@H](O)[C@H](O)CCc1ccccc1", "note": "[C13]", "values": [{"measurement": "maturation of human monocyte-derived DCs", "setting": "[5]", "result": "promotes maturation of human monocyte-derived DCs"}, {"measurement": "effects on survival compared with C1", "setting": "[6]", "result": "did not differ significantly from that of C1"}, {"measurement": "suppression of tumor size compared with C1", "setting": "[6]", "result": "significantly greater suppression of tumor size than C1"}, {"measurement": "tumor growth and survival compared to control", "setting": "[6]", "result": "able to suppress tumor growth and prolong survival as compared to control"}, {"measurement": "entry/replication of H1N1 virus (virus titer)", "setting": "[7]", "result": "slight inhibition of the entry/replication of H1N1 virus in vitro"}, {"measurement": "anti-cancer efficacy compared with C1", "setting": "[8]", "result": "significantly greater anti-cancer efficacy than C1"}, {"measurement": "adjuvant activities in enhancing the anti-HAc antibody titer", "setting": "[9]", "result": "better adjuvant activities than the others in enhancing the antibody titer"}, {"measurement": "effectiveness as adjuvant", "setting": "[9]", "result": "particularly effective as adjuvants"}, {"measurement": "TCR activation", "setting": "[10]; CD1d-dependent, HeLa-CD1d or DCs", "result": "stronger in TCR activation than compounds C1 and C17"}, {"measurement": "intracellular phospho-CD3ε", "setting": "[10]; presented by DCs", "result": 17.3, "unit": "folds"}, {"measurement": "phospho-CREB", "setting": "[10]; presented by DCs", "result": 158, "unit": "folds increase"}, {"measurement": "intracellular phospho-CD3ε", "setting": "[10]; presented by HeLa-CD1d cells", "result": "7.3 folds of control"}, {"measurement": "phospho-CREB", "setting": "[10]; presented by HeLa-CD1d cells", "result": 41, "unit": "folds expression"}, {"measurement": "phospho-ERK1/2", "setting": "[10]; with DCs", "result": 35, "unit": "folds"}, {"measurement": "phospho-ERK1/2", "setting": "[10]; with HeLa-CD1d cells", "result": 6.6, "unit": "folds increase"}, {"measurement": "cumulative proportion of survival", "setting": "[11]", "result": "prolonged survival"}, {"measurement": "survival", "setting": "[11]", "result": "significantly enhanced survival"}, {"measurement": "secretion of IFN-γ", "setting": "[12]; 10 μg/ml, 18 hour culture, compared with α-GalCer", "result": "significantly greater secretion of IFN-γ than α-GalCer"}, {"measurement": "induction of chemokines", "setting": "[12]; compared with α-GalCer", "result": "striking increase in chemokines such as MIP-11, MCP-1, and IL-8"}, {"measurement": "IFN/IL-4 ratio (TH1/TH2 bias)", "setting": "[12]; normalized to DMSO control", "result": "more TH1-biased"}, {"measurement": "total and mature DCs", "setting": "[13]; FIGS. 26B, 28B and 30B, compared with C1", "result": "significantly greater rises in total and mature DCs than C1"}, {"measurement": "CD8^+/CD4^+ ratio", "setting": "[13]; FIGS. 26H, 28H and 30H", "result": "more potent than C1"}, {"measurement": "splenocyte expansion", "setting": "[13]; IM administration, 72 hours", "result": "greater effects than C1"}, {"measurement": "expansion of splenocytes", "setting": "[13]; IV administration, 72 hours", "result": "greater potency than C1"}, {"measurement": "CD4^+ T cells", "setting": "[13]; SubQ route", "result": "more active over control"}, {"measurement": "CD8^+ T cells", "setting": "[13]; SubQ route", "result": "more activity than C1"}, {"measurement": "B cell expansion/activation", "setting": "[13]; mouse, in vivo", "result": "significant activities"}, {"measurement": "CD8^+ T cell expansion/activation", "setting": "[13]; mouse, in vivo", "result": "more active than C1"}, {"measurement": "NK and NKT expansion/activation", "setting": "[13]; mouse, in vivo", "result": "comparable activities as C1"}, {"measurement": "expansion/activation of NKs and NKTs", "setting": "[13]; mouse, in vivo", "result": "best capacity for expansion/activation of NKs and NKTs"}, {"measurement": "IFN-γ/IL-4 ratio (TH1/TH2 bias)", "setting": "[14]; 2 hours, IV route, compared with C1", "result": "less TH2 responses than C1"}, {"measurement": "serum IL-2, IL-12, MIP-1β and MCP-1", "setting": "[14]; IV administration", "result": "striking rises in IL-2, IL-12, MIP-1β and MCP-1"}]}]}
